Molecular target: T1, voltage gated potassium channel Kv1.3 (Homo sapiens, UniProt P22001)
T1 construct: expressed in transfected cells; host or cells: CHO cells
Experiment: In vitro inhibition of Kv1.3 potassium channels (Rb efflux, atomic absorption)
Format: cell-based
Conditions: CHO cells over-expressing Kv1.3, Rb efflux after depolarization, triplicate; for inhibition at 10 µM: 10^−5 M, read-out: percentage Kv1.3 inhibition at 10^−5M
Text: In vitro inhibition of Kv1.3 potassium channels: the assay was used to determine the permeability of potassium ion channels expressed in the cell membrane. […] Adherent CHO cells over-expressing the voltage gated potassium channel Kv1.3 were loaded with Rb. Depolarization of the cells leads to opening of the potassium channels and to efflux of Rb through the potassium channels. Thus, the Rb concentration in the supernatant is proportional to the potassium ion channel permeability. To identify potassium channel blockers, cells were incubated with compounds before depolarization. A reduction of Rb in the supernatant indicated the presence of a potassium ion channel blocker. The Rb concentration in the supernatant was measured using an Atomic Absorption Spectrometer.
CHO cells expressing either Kv1.3, Kv1.5 or hERG ion channels were cultured at 37° C./5% CO2. Prior to the experiment cells were seeded in 96 well plates (Corning, N.Y., USA) and cultured for 24 h. Medium was discarded and replaced by 100 μl Rb buffer (10 mM HEPES pH 7.4, 5 mM Glucose, 5 mM RbCl, 140 mM NaCl, 2 mM CaCl2, 1 mM MgSO4) per well. After 4 h incubation the cells were washed three times with low potassium buffer (10 mM HEPES pH 7.4, 5 mM Glucose, 5 mM KCl, 140 mM NaCl, 2 mM CaCl2, 1 mM MgSO4). Compounds were dissolved in 75 μl low potassium buffer and added to the cells. After 12 minutes cells were depolarized by adding […] high potassium buffer (10 mM HEPES pH 7.4, 5 mM Glucose, 145 mM KCl, 2 mM CaCl2, 1 mM MgSO4), followed by additional 15 minutes of incubation. The supernatant was transferred in a 96 well plate and the Rb concentration was measured using a ZEEnit Atomic Absorption Spectrometer (Analytik Jena, Germany). By comparing control vs. depolarized w/o compound, the ion channel inhibition was determined. Measurements were done in triplicate.

T1 sequence (P22001 whole entry): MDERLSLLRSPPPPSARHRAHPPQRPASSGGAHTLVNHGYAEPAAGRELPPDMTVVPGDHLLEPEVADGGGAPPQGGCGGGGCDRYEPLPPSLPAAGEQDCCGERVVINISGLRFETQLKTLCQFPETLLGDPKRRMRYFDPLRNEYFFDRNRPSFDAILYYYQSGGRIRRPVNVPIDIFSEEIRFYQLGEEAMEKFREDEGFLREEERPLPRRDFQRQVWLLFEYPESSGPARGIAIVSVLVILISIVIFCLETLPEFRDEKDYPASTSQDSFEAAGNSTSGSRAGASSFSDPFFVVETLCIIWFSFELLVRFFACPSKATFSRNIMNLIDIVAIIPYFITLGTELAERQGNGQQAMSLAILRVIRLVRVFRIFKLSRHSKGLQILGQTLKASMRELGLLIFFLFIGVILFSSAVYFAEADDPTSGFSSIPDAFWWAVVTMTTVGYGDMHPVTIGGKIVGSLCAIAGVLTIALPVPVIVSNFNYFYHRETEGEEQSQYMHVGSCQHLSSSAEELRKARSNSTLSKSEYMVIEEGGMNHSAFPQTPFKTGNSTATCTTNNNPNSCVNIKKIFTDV

| SMILES | inhibition at 10 µM [%] | percentage Kv1.3 inhibition at 10^−5M [%] |
| --- | --- | --- |
| C[C@@H](c1ccccc1)N1C[C@@]2(CCCN(C(=O)c3cc(C(F)(F)F)cc(C(F)(F)F)c3)CC2)OC1=O [Compound 29, (5S)-8-[3,5-bis(trifluoromethyl)benzoyl]-3-[(1S)-1-phenylethyl]-1-oxa-3,8-diazaspiro[4.6]-undecan-2-one] | 100 | – |
| C[C@@H](c1ccccc1)N1C[C@]2(CCCN(C(=O)c3cc(C(F)(F)F)cc(C(F)(F)F)c3)CC2)OC1=O [Compound 30, (5R)-8-[3,5-bis(trifluoromethyl)benzoyl]-3-[(1S)-1-phenylethyl]-1-oxa-3,8-diazaspiro[4.6]-undecan-2-one] | 75 | – |
| C[C@H](c1ccccc1)N1CC2(CCCN(C(=O)c3cc(C(F)(F)F)cc(C(F)(F)F)c3)CC2)OC1=O (stereo partly drawn) [Compound 31, 8-(3,5-trifluoromethyl-benzoyl)-3-[(R)-1-phenyl-ethyl]-1-oxa-3,8-diazaspiro[4.6]undecan-2-one] | – | 64 |
| C[C@H](c1ccccc1)N1C[C@@]2(CCCN(C(=O)c3cc(C(F)(F)F)cc(C(F)(F)F)c3)CC2)OC1=O [Compound 32, (5S)-8-[3,5-bis(trifluoromethyl)benzoyl]-3-[(1R)-1-phenylethyl]-1-oxa-3,8-diazaspiro[4.6]-undecan-2-one] | 99 | – |

Source: US8575148B2, “Spiro azepane-oxazolidinones as Kv1.3 potassium channel blockers” (Abbott Healthcare Products B.V., priority 2008, dated 2013)
